For one assay, the system named is IL-6. Briefly: Plasma IL-6 level after CLP. The format is in vivo, male Sprague-Dawley rats. The conditions noted are these: 40 μg/kg i.p. 5 h after CLP; 48 hours after CLP; vs saline vehicle. Here is the method:
(§1) Surgery. Cecal ligation and perforation (CLP) was performed on male Sprague-Dawley rats (250-350 g) according to known methods (Chaudry, et al. (1979) Surgery 85:205-21). The CLP model of sepsis is an established, clinically relevant model of sepsis (Rittirsch et al., (2009) Nature Protocol 4(1):31-36). Animals were fasted overnight before surgery. On the day of surgery, rats were anesthetized with Isofluorane (+oxygen). A 2-cm-long midline incision was made in the abdomen to expose the cecum. Fecal matter was massaged into the cecum. The distal two-thirds of the cecum was ligated with 4.0 surgical silk. Using an 18-gauge needle, the cecum was punctured twice. Some fecal matter was massaged out of the cecum through these holes. The cecum was placed back into the abdomen, which was then closed. Saline (2 ml/100 g; s.c.) was injected to replace any fluids lost during surgery. Five hours after surgery, the rats were given either LXA4 (40 μg/kg rat; i.p.) or saline vehicle. This concentration of LXA4 was derived from published in vivo work in rodents (Bannenberg et al., (2004) Br. J. Pharmacol. 143:43-52). At the end of 48 hours, rats were anesthetized with pentobarbital (50 mg/kg, i.p.). […]
(§2) Plasma IL-6, MCP-1 and IL-10 Levels. Plasma IL-6, MCP-1 and IL-10 levels were measured using commercially available kits. […]

Assay [1] deals with bacterial load in CLP rats. Description: Bacterial load (CFU) in blood and peritoneal lavage fluid after CLP. The format is in vivo, male Sprague-Dawley rats. The settings on record: 40 μg/kg i.p. 5 h after CLP; 48 hours after CLP; vs saline vehicle. The protocol:
as §1, with “143:43-52).” for “143:43-52). At the end of 48 hours, rats were anesthetized with pentobarbital (50 mg/kg, i.p.).”
Bacterial Load. […] At the end of the incubation period, colony forming units (CFU) were counted.
Bacterial Load. Bacterial load in blood and peritoneal lavage fluid was measured after plating of serially diluted samples on tryptic soy agar plates. […]

Another assay relates to MCP-1. Briefly: Plasma MCP-1 level after CLP. The conditions noted are these: 40 μg/kg i.p. 5 h after CLP; 48 hours after CLP; vs saline vehicle. The format is in vivo, male Sprague-Dawley rats. The protocol: as §1, with “143:43-52).” for “143:43-52). At the end of 48 hours, rats were anesthetized with pentobarbital (50 mg/kg, i.p.).”
Plasma IL-6, MCP-1 and IL-10 Levels. Plasma IL-6, MCP-1 and IL-10 levels were measured using commercially available kits.
Plasma MCP-1. […] Accordingly, plasma MCP-1 was measured as another marker of systemic inflammatory response. […]

Assay [2] deals with CLP rats. Briefly: Survival after CLP-induced sepsis, intravenous LXA4. The format is in vivo. The settings on record: 8 μg/kg i.v., single dose 1 hour after CLP; monitored every 24 hours for 8 days. Here is the method:
as §1, with “143:43-52).” for “143:43-52). At the end of 48 hours, rats were anesthetized with pentobarbital (50 mg/kg, i.p.).”
To further examine the use of LXA4 in the treatment of sepsis, the effect intravenous LXA4 administration on survival after CLP-induced sepsis was examined. […] Survival was monitored every 24 hours for 8 days (FIG. 7).

Another assay deals with IL-10. Briefly: Plasma IL-10 level after CLP. The conditions noted are these: 40 μg/kg i.p. 5 h after CLP; 48 hours after CLP; vs saline vehicle. The format is in vivo, male Sprague-Dawley rats. The protocol: as §1, §2
The subject of assay [3] is CLP rats. Briefly: Survival in cecal ligation and perforation (CLP) model of sepsis, LXA4 i.p. The format is in vivo, male Sprague-Dawley rats. The conditions noted are these: 40 μg/kg i.p. five hours after CLP surgery; subgroup of rats that lived longer than 48 hours; vs vehicle treated CLP rats. Here is the method: as §1, with “vehicle.” for “vehicle. This concentration of LXA4 was derived from published in vivo work in rodents (Bannenberg et al., (2004) Br. J. Pharmacol. 143:43-52). At the end of 48 hours, rats were anesthetized with pentobarbital (50 mg/kg, i.p.).”
In this study, the effect of LXA4 in the clinically relevant cecal ligation and puncture (CLP) model of sepsis was analyzed. […]
Survival. […] As there was a significant change in the slope of the individual survival curves starting at 48 hours, the effects of LXA4 on systemic inflammatory mediator release, bacterial load and peritoneal leukocyte counts 48 hours after CLP sepsis were analyzed.

The test system of assay [4] is peritoneal leukocytes of CLP rats. Briefly: Peritoneal cell count and differential after CLP. The format is in vivo, male Sprague-Dawley rats. The conditions noted are these: 40 μg/kg i.p. 5 h after CLP; 48 hours after CLP; vs CLP rats given saline. The protocol:
Surgery. Cecal ligation and perforation (CLP) was performed on male Sprague-Dawley rats (250-350 g) according to known methods (Chaudry, et al. (1979) Surgery 85:205-21). The CLP model of sepsis is an established, clinically relevant model of sepsis (Rittirsch et al., (2009) Nature Protocol 4(1):31-36). Animals were fasted overnight before surgery. On the day of surgery, rats were anesthetized with Isofluorane (+oxygen). A 2-cm-long midline incision was made in the abdomen to expose the cecum. Fecal matter was massaged into the cecum. The distal two-thirds of the cecum was ligated with 4.0 surgical silk. Using an 18-gauge needle, the cecum was punctured twice. Some fecal matter was massaged out of the cecum through these holes. The cecum was placed back into the abdomen, which was then closed. Saline (2 ml/100 g; s.c.) was injected to replace any fluids lost during surgery. Five hours after surgery, the rats were given either LXA4 (40 μg/kg rat; i.p.) or saline vehicle. This concentration of LXA4 was derived from published in vivo work in rodents (Bannenberg et al., (2004) Br. J. Pharmacol. 143:43-52). At the end of 48 hours, rats were anesthetized with pentobarbital (50 mg/kg, i.p.). A midline incision was made and the peritoneal cavity was lavaged with 20 ml of PBS containing 0.38% Na citrate (as anticoagulant).
Two hundred μl of lavage fluid was taken immediately for measurement of bacterial load. The rest of the fluid was passed through a […] (diameter) nylon mesh to remove debris and then centrifuged at 110×g for 7 minutes at 4° C. The supernatant was removed and stored at −80° C. for further analyses. Forty ml red blood cell lysis buffer was added to the cell pellet for 10 minutes with gentle inversion before being centrifuged again at 110×g (7 minutes; 4° C.). Cells were resuspended in 1 ml PBS.
Peritoneal Cell Differential. Peritoneal cells were counted using an automated hemocytometer (Beckman Coulter Counter; Z4) and then cytospun onto superfrost ++ slides. In order to perform cell differentials, DIFQUIK staining was performed according to manufacturer's instructions. […]

Entries after “also recorded” stand apart in the source; their conditions may differ.

`CCCCC[C@H](O)/C=C/C=C\C=C\C=C\[C@@H](O)[C@@H](O)CCCC(=O)O` [LXA4, 5S,6R,15S-trihydroxy-7E,9E,11Z,13E-Eicosatetraenoic acid]: the “plasma IL-6 levels” value with IL-6 was “reduced plasma levels of IL-6”. Moreover, in assay [1], the “bacterial load in the peritoneal cavity (CFU)” value is recorded as “reduced bacterial load in the peritoneal cavity but the reduction did not reach significance” and the “blood bacterial load (CFU)” value is reported as “reduces blood bacterial load; also recorded: substantially reduced blood bacterial load”. The “plasma MCP-1 levels” value in the assay on MCP-1 is recorded as “reduced plasma levels of MCP-1; also recorded: significantly reduced plasma MCP-1 levels”. Besides, the “survival (Kaplan-Meier, log rank test)” value in the assay on CLP rats [2] was “significantly increased survival”. Moreover, in the assay on IL-10, the “plasma IL-10 levels” value is recorded as “significantly decreased plasma IL-10 levels”. In addition, the “survival (Kaplan-Meier, log-rank test)” value in the assay on CLP rats [3] is on record as “significantly increased survival; also recorded: increased survival rate”. Further, in assay [4], the “number of monocytes/macrophages in the peritoneal cavity” value is listed as “increased the number of monocytes/macrophages”, the “number of neutrophils in the peritoneal cavity” value was “without affecting the number of neutrophils; also recorded: number of neutrophils remained similar in both groups” and the “total number of peritoneal cells (leukocytes)” value was “increased the total number of peritoneal cells; also recorded: increased peritoneal leukocytes further”.

The values are drawn from US20120220658A1, “Method for Treating Sepsis or Septic Shock” (University of Medicine and Dentistry of New Jersey, priority 2009, published 2012).
